In data set [1] the target is T1, human A1 receptors expressed in CHO membranes (Homo sapiens, UniProt P30542).
T1 construct: expressed in transfected cells; host or cells: CHO cells (hCHO-A1 clone), membrane preparation
T1 sequence (P30542 1-326): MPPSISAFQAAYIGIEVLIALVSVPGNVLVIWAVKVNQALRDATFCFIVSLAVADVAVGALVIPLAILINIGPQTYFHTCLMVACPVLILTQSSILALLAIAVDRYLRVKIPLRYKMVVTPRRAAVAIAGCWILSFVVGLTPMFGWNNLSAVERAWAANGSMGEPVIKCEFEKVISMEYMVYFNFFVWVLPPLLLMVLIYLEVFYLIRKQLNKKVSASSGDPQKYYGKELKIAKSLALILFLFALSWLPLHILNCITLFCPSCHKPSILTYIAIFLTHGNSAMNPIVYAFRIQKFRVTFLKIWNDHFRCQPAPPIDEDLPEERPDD
Kind of data set: Allosteric enhancement of specific binding of [3H]CCPA to hCHO-A1 membranes. The following applies: compound tested at 10 μM concentration. The procedure: (§1) Membrane Preparation from CHO Cells Transfected with the Human Recombinant A1, A2A and A3 Adenosine Receptors
The hCHO-A1, hCHO-A2A and hCHO-A3 cell clones are grown adherently and maintained in Dulbecco's modified Eagle's medium with nutrient mixture F12, containing 10% fetal calf serum, penicillin (100 U/mL), streptomycin (100 μg/mL), L-glutamine (2 mM), geneticine (G418) 0.2mg/mL at 37° C. in 5% CO2/95% air. 30 min at 37° C. (Klotz et al. Naunyn-Schmied. Arch Pharm. 1998, 357, 1-9). Cells are split two or three times weekly at a ratio of between 1:5 and 1:10. For membrane preparation the culture medium is removed. The cells are washed with PBS and scraped off T75 flasks in ice-cold hypotonic buffer (5 mM Tris HCl, 2 mM EDTA, pH 7.4). The cell suspension is homogenized with Polytron and the homogenate is spun for 10 min at 1,000×g. The supernatant is then centrifuged for 30 min at 100,000×g. […] The protein concentration is determined according to a Bio-Rad method (Bradford, 1976) with bovine albumin as a standard reference.
To determine the effect of the compounds of the present invention on the binding to A1, A2A and A3 receptors, membranes from hCHO-A1, hCHO-A2A, hCHO-A3 are incubated in a buffer solution in the absence and in the presence of the examined compounds. […] Bound and free radioactivity are separated by filtering the assay mixture through Whatman GF/B glass fibre filters using a Micro-mate 196 cell harvester (Packard Instrument Company). The filter bound radioactivity is counted on Top Count Microplate Scintillation Counter (efficacy 57%) with Micro-Scint 20. […]
Competition experiments are carried out in triplicate in a final volume of 250 μL in test tubes containing 1 nM [^3H]CCPA, 50 mM Tris-HCl, pH 7.4 and 100 μL of diluted membranes and at least six to eight different concentrations of the tested compounds in the range from 1 nM to 50 μM for 90 min at 25° C. […] Allosteric enhancement is measured as the action of different concentrations of the tested compounds to increase the specific binding of 1 nM [^3H]CCPA to hCHO-A1 membranes.

The target of data set [2] is T1, human A1 receptors expressed in CHO membranes. Kind of data set: Saturation binding of [3H]CCPA to hCHO-A1. The following applies: compound tested at 10 μM concentration. As to the method:
as §1
The hCHO-A1, hCHO-A2A and hCHO-A3 cell clones are grown adherently and maintained in Dulbecco's modified Eagle's medium with nutrient mixture F12, containing 10% fetal calf serum, penicillin (100 U/mL), streptomycin (100 μg/mL), L-glutamine (2 mM), geneticine (G418) 0.2mg/mL at 37° C. in 5% CO2/95% air. 30 min at 37° C. (Klotz et al. Naunyn-Schmied. Arch Pharm. 1998, 357, 1-9). Cells are split two or three times weekly at a ratio of between 1:5 and 1:10. For membrane preparation the culture medium is removed. The cells are washed with PBS and scraped off T75 flasks in ice-cold hypotonic buffer (5 mM Tris HCl, 2 mM EDTA, pH 7.4). The cell suspension is homogenized with Polytron and the homogenate is spun for 10 min at 1,000×g. The supernatant is then centrifuged for 30 min at 100,000×g. The membrane pellet is resuspended in 50 mM Tris HCl buffer pH 7.4 for The A1 adenosine receptors, 50 mM Tris HCl buffer pH 7.4, 10 mM MgCl2 for A2A adenosine receptors, 50 mM Tris HCl buffer pH 7.4, 10 mM MgCl2, 1 mM EDTA for A3 adenosine receptors and incubated with 3 Ul/mL of adenosine deaminase for 30 min at 37° C. The protein concentration is determined according to a Bio-Rad method (Bradford, 1976) with bovine albumin as a standard reference.
To determine the effect of the compounds of the present invention on the binding to A1, A2A and A3 receptors, membranes from hCHO-A1, hCHO-A2A, hCHO-A3 are incubated in a buffer solution in the absence and in the presence of the examined compounds. Test agents are dissolved in DMSO and added to the assay from a 100-fold concentrated solution in DMSO. Control incubations also contain 1% DMSO. Bound and free radioactivity are separated by filtering the assay mixture through Whatman GF/B glass fibre filters using a Micro-mate 196 cell harvester (Packard Instrument Company). The filter bound radioactivity is counted on Top Count Microplate Scintillation Counter (efficacy 57%) with Micro-Scint 20.
Saturation Binding of [^3H]CCPA to hCHO-A1 […]

As a reminder, the melting point is the temperature of the solid-liquid transition.

Turning to `Nc1sc(-c2ccccc2)c(CN(C2CCCCC2)C2CCCCC2)c1C(=O)c1ccc(Cl)cc1` [Example 2, {2-Amino-4-[(dicyclohexylamino)methyl]-5-phenyithiophen-3-yl}(4-chlorophenyl)methanone], the “increase of the A1 specific binding of the agonist [3H]CCPA to human CHO-A1 membranes” value (“increase … to human CHO-A1 membranes” below) in data set [1] is “up to 4.4 fold”. For the same compound, the “increase in the BMAX value of the agonist [3H]CCPA” value (from here on “increase in the BMAX value”) in data set [2] is given as “about 3.5 fold”.

In the case of `CC(C)(C)CN(Cc1c(-c2ccccc2)sc(N)c1C(=O)c1ccc(Cl)cc1)CC(C)(C)C` [Example 16-9, {2-Amino-4-[(dineopentylamino)methyl]-5-phenylthiophen-3-yl}(4-chlorophenyl)methanone], in data set [1], the “increase … to human CHO-A1 membranes” value is at most 5.5 fold. In data set [2], the “increase in the BMAX value” value was around 6.3 fold.

The compound `Nc1sc(-c2cccs2)c(CN(C2CCCCC2)C2CCCCC2)c1C(=O)c1ccc(Cl)cc1` [Example 30, {2-Amino-4-[(dicyclohexylamino)methyl]-5-(thiophen-2-yl)thiophen-3-yl}(4-chlorophenyl)methanone] showed a melting point of 197 to 199 °C. Also, in data set [1], the “increase … to human CHO-A1 membranes” value is reported as at most 4.2 fold. Further, in data set [2], the “increase in the BMAX value” value is around 4.6 fold.

The record behind these values is patent US20120108636A1, “Allosteric Enhancers of th A1 Adenosine Receptor” (King Pharmaceuticals Research and Development, Inc., priority 2008, published 2012).
